Where two headings read alike, the source gives them in different places.
Assays:
Candida parapsilosis = experiment: microbe, parasite or virus in culture; conditions: Lodderomyces parapsilosis, 48 h
Procedure: (§1) The media was then sterilized by steam autoclaving the solution for 15 minutes at 121° C. and the media was placed into 3 96 cell plates and pH using either 0.1N HCl or 0.1N NaOH to pH values of 3.1, 5.6, 6.0, 6.5, 7.0, and 7.5.
(§2) Three exemplary embodiment solutions were added and serial diluted into a series of treatment wells and 0.5 McFarland Standard's worth of yeast cells were added to each well. The plates were incubated at 32° C. for 48 hours and then the OD was read at 600 nm. The percent inhibition was graphed as a percentage of the following formula indicated in Equation 1.

Saccharomyces cerevisiae [1] = experiment: microbe, parasite or virus in culture; conditions: 48 h
Procedure: as §1, §2

Zygosaccharomyces bailii = experiment: microbe, parasite or virus in culture; conditions: 48 h
Procedure: as §1, §2

Zygosaccharomyces rouxii = experiment: microbe, parasite or virus in culture; conditions: 48 h
Procedure: as §1, §2

Escherichia coli = conditions: 500 ppm; pH 4.5; 24 hours growth, then plated
Procedure: (§3) In conducting tests with the model organisms, agar medium for 1 L plates were first prepared having the composition indicated in Table 16.
(§4) In connection with this particular experiment, the pH of the samples was adjusted to a pH value of 4.5 by adding a small amount of 0.1 M HCl. The samples were then sterilized with steam at 121° C. for about 15 minutes. The formulations were allowed to cool to 70° F., after which a sample of 10^6 cells of an aforementioned microorganism, as measured using the optical density of the cells, was applied to 1 mL of the individual solutions. Afterwards, samples were allowed to grow for 24 hours. The solutions were diluted one hundred-fold and 10 microliters were applied to a LB media plate and outgrown for 24 additional hours.

[2] = tested on: Lactobacillus acidophilus; conditions: 500 ppm; pH 4.5; 24 hours growth, then plated
Procedure: as §3, §4

Saccharomyces cerevisiae [3] = conditions: 1000 ppm (positive control); pH 4.0; 72 hours
Procedure: Each of the formulations presented above was added to each of the three 20 mL samples of the agar medium.
In connection with this particular experiment, the pH of the samples was adjusted to a pH value of 4.0 by adding a small amount of 0.1 M HCl. The samples were then sterilized with steam at 121° C. for 15 minutes. In one embodiment, 1 mL sample formulations were poured into a 1.5 mL sterile microcentrifuge tube and inoculated with ˜10,000 Saccharomyces cerevisiae cells (e.g., yeast cells). The cells were allowed to grow outwards for 72 hours and then the endpoint concentration of cell growth was determined spectrophotometrically at 660 nm. In samples where cell growth was generally absent cell samples were diluted and counted on a yeast extract peptone dextrose plate. Controls to account for the presence of binder in the absorbance reading were subtracted out in the reporting of the final absorbance. The negative control was diluted twenty times prior to reading the Abs 660 nm.

[4] = tested on: Saccharomyces cerevisiae, Candida parapsilosis, Zygosaccharomyces rouxii, and Zygosaccharomyces bailii; experiment: Experimental Test 3, summary statements over the yeast species; assay type: cell-based; conditions: Tables 12-15; pH 3.1-7.5
Procedure: as §1, §2

[5] = pH 3.1, read-out: Percent inhibition
[6] = pH 5.6, read-out: Percent inhibition
[7] = pH 6, read-out: Percent inhibition
[8] = pH 6.5, read-out: Percent inhibition
[9] = pH 7, read-out: Percent inhibition
[10] = pH 7.5, read-out: Percent inhibition

C/C=C/C=C/C(=O)[O-].[K+] [Potassium Sorbate]
inhibition at 130 ppm (Candida parapsilosis; [5]): 0.9%
inhibition at 250 ppm (Candida parapsilosis; [5]): 5.2%
inhibition at 500 ppm (Candida parapsilosis; [5]): 16.2%
inhibition at 1000 ppm (Candida parapsilosis; [5]): 13.5%
inhibition at 2000 ppm (Candida parapsilosis; [5]): 6.5%
inhibition at 130 ppm (Candida parapsilosis; [6]): 9.5%
inhibition at 250 ppm (Candida parapsilosis; [6]): 12.3%
inhibition at 500 ppm (Candida parapsilosis; [6]): 28.7%
inhibition at 1000 ppm (Candida parapsilosis; [6]): 32.8%
inhibition at 2000 ppm (Candida parapsilosis; [6]): 42.4%
inhibition at 130 ppm (Candida parapsilosis; [7]): 5%
inhibition at 250 ppm (Candida parapsilosis; [7]): 12.8%
inhibition at 500 ppm (Candida parapsilosis; [7]): 7.6%
inhibition at 1000 ppm (Candida parapsilosis; [7]): 4.6%
inhibition at 2000 ppm (Candida parapsilosis; [7]): 2.8%
inhibition at 130 ppm (Candida parapsilosis; [8]): 3.3%
inhibition at 250 ppm (Candida parapsilosis; [8]): 1.1%
inhibition at 500 ppm (Candida parapsilosis; [8]): 0%
inhibition at 1000 ppm (Candida parapsilosis; [8]): 0%
inhibition at 2000 ppm (Candida parapsilosis; [8]): 0.8%
inhibition at 130 ppm (Candida parapsilosis; [9]): 1.7%
inhibition at 250 ppm (Candida parapsilosis; [9]): 8.8%
inhibition at 500 ppm (Candida parapsilosis; [9]): 15.9%
inhibition at 1000 ppm (Candida parapsilosis; [9]): 8.3%
inhibition at 2000 ppm (Candida parapsilosis; [9]): 8.4%
inhibition at 130 ppm (Candida parapsilosis; [10]): 6.2%
inhibition at 250 ppm (Candida parapsilosis; [10]): 0%
inhibition at 500 ppm (Candida parapsilosis; [10]): 0%
inhibition at 1000 ppm (Candida parapsilosis; [10]): 0%
inhibition at 2000 ppm (Candida parapsilosis; [10]): 7.4%
inhibition at 130 ppm (Saccharomyces cerevisiae [1]; [5]): 99.6%
inhibition at 250 ppm (Saccharomyces cerevisiae [1]; [5]): 99.4%
inhibition at 500 ppm (Saccharomyces cerevisiae [1]; [5]): 99.7%
inhibition at 1000 ppm (Saccharomyces cerevisiae [1]; [5]): 99.8%
inhibition at 2000 ppm (Saccharomyces cerevisiae [1]; [5]): 99.3%
inhibition at 130 ppm (Saccharomyces cerevisiae [1]; [6]): 84.9%
inhibition at 250 ppm (Saccharomyces cerevisiae [1]; [6]): 95.3%
inhibition at 500 ppm (Saccharomyces cerevisiae [1]; [6]): 98.1%
inhibition at 1000 ppm (Saccharomyces cerevisiae [1]; [6]): 99%
inhibition at 2000 ppm (Saccharomyces cerevisiae [1]; [6]): 99.4%
inhibition at 130 ppm (Saccharomyces cerevisiae [1]; [7]): 9.9%
inhibition at 250 ppm (Saccharomyces cerevisiae [1]; [7]): 25%
inhibition at 500 ppm (Saccharomyces cerevisiae [1]; [7]): 50.3%
inhibition at 1000 ppm (Saccharomyces cerevisiae [1]; [7]): 62%
inhibition at 2000 ppm (Saccharomyces cerevisiae [1]; [7]): 76.2%
inhibition at 130 ppm (Saccharomyces cerevisiae [1]; [8]): 17.7%
inhibition at 250 ppm (Saccharomyces cerevisiae [1]; [8]): 28.2%
inhibition at 500 ppm (Saccharomyces cerevisiae [1]; [8]): 48.1%
inhibition at 1000 ppm (Saccharomyces cerevisiae [1]; [8]): 60.6%
inhibition at 2000 ppm (Saccharomyces cerevisiae [1]; [8]): 84.6%
inhibition at 130 ppm (Saccharomyces cerevisiae [1]; [9]): 22%
inhibition at 250 ppm (Saccharomyces cerevisiae [1]; [9]): 37.9%
inhibition at 500 ppm (Saccharomyces cerevisiae [1]; [9]): 53.2%
inhibition at 1000 ppm (Saccharomyces cerevisiae [1]; [9]): 69%
inhibition at 2000 ppm (Saccharomyces cerevisiae [1]; [9]): 84.9%
inhibition at 130 ppm (Saccharomyces cerevisiae [1]; [10]): 19.4%
inhibition at 250 ppm (Saccharomyces cerevisiae [1]; [10]): 44.9%
inhibition at 500 ppm (Saccharomyces cerevisiae [1]; [10]): 55.8%
inhibition at 1000 ppm (Saccharomyces cerevisiae [1]; [10]): 73.6%
inhibition at 2000 ppm (Saccharomyces cerevisiae [1]; [10]): 72.1%
inhibition at 130 ppm (Zygosaccharomyces bailii; [5]): 91.9%
inhibition at 250 ppm (Zygosaccharomyces bailii; [5]): 96.5%
inhibition at 500 ppm (Zygosaccharomyces bailii; [5]): 99.1%
inhibition at 1000 ppm (Zygosaccharomyces bailii; [5]): 99.7%
inhibition at 2000 ppm (Zygosaccharomyces bailii; [5]): 100%
inhibition at 130 ppm (Zygosaccharomyces bailii; [6]): 70.4%
inhibition at 250 ppm (Zygosaccharomyces bailii; [6]): 86.7%
inhibition at 500 ppm (Zygosaccharomyces bailii; [6]): 95.6%
inhibition at 1000 ppm (Zygosaccharomyces bailii; [6]): 99.7%
inhibition at 2000 ppm (Zygosaccharomyces bailii; [6]): 99.8%
inhibition at 130 ppm (Zygosaccharomyces bailii; [7]): 0%
inhibition at 250 ppm (Zygosaccharomyces bailii; [7]): 0%
inhibition at 500 ppm (Zygosaccharomyces bailii; [7]): 0%
inhibition at 1000 ppm (Zygosaccharomyces bailii; [7]): 1.8%
inhibition at 2000 ppm (Zygosaccharomyces bailii; [7]): 3%
inhibition at 130 ppm (Zygosaccharomyces bailii; [8]): 0%
inhibition at 250 ppm (Zygosaccharomyces bailii; [8]): 0%
inhibition at 500 ppm (Zygosaccharomyces bailii; [8]): 0%
inhibition at 1000 ppm (Zygosaccharomyces bailii; [8]): 0%
inhibition at 2000 ppm (Zygosaccharomyces bailii; [8]): 20%
inhibition at 130 ppm (Zygosaccharomyces bailii; [9]): 0%
inhibition at 250 ppm (Zygosaccharomyces bailii; [9]): 0%
inhibition at 500 ppm (Zygosaccharomyces bailii; [9]): 0%
inhibition at 1000 ppm (Zygosaccharomyces bailii; [9]): 0%
inhibition at 2000 ppm (Zygosaccharomyces bailii; [9]): 16%
inhibition at 130 ppm (Zygosaccharomyces bailii; [10]): 9.7%
inhibition at 250 ppm (Zygosaccharomyces bailii; [10]): 0%
inhibition at 500 ppm (Zygosaccharomyces bailii; [10]): 0%
inhibition at 1000 ppm (Zygosaccharomyces bailii; [10]): 0%
inhibition at 2000 ppm (Zygosaccharomyces bailii; [10]): 0.3%
inhibition at 130 ppm (Zygosaccharomyces rouxii; [5]): 39.3%
inhibition at 250 ppm (Zygosaccharomyces rouxii; [5]): 66.7%
inhibition at 500 ppm (Zygosaccharomyces rouxii; [5]): 80.4%
inhibition at 1000 ppm (Zygosaccharomyces rouxii; [5]): 88.6%
inhibition at 2000 ppm (Zygosaccharomyces rouxii; [5]): 84.2%
inhibition at 130 ppm (Zygosaccharomyces rouxii; [6]): 93.7%
inhibition at 250 ppm (Zygosaccharomyces rouxii; [6]): 95.9%
inhibition at 500 ppm (Zygosaccharomyces rouxii; [6]): 37.7%
inhibition at 1000 ppm (Zygosaccharomyces rouxii; [6]): 99.3%
inhibition at 2000 ppm (Zygosaccharomyces rouxii; [6]): 100%
inhibition at 130 ppm (Zygosaccharomyces rouxii; [7]): 0%
inhibition at 250 ppm (Zygosaccharomyces rouxii; [7]): 0%
inhibition at 500 ppm (Zygosaccharomyces rouxii; [7]): 3.4%
inhibition at 1000 ppm (Zygosaccharomyces rouxii; [7]): 17.4%
inhibition at 2000 ppm (Zygosaccharomyces rouxii; [7]): 63.3%
inhibition at 130 ppm (Zygosaccharomyces rouxii; [8]): 19.7%
inhibition at 250 ppm (Zygosaccharomyces rouxii; [8]): 0%
inhibition at 500 ppm (Zygosaccharomyces rouxii; [8]): 6.7%
inhibition at 1000 ppm (Zygosaccharomyces rouxii; [8]): 65.6%
inhibition at 2000 ppm (Zygosaccharomyces rouxii; [8]): 90.6%
inhibition at 130 ppm (Zygosaccharomyces rouxii; [9]): 4.7%
inhibition at 250 ppm (Zygosaccharomyces rouxii; [9]): 9.2%
inhibition at 500 ppm (Zygosaccharomyces rouxii; [9]): 62.7%
inhibition at 1000 ppm (Zygosaccharomyces rouxii; [9]): 86.2%
inhibition at 2000 ppm (Zygosaccharomyces rouxii; [9]): 89.3%
inhibition at 130 ppm (Zygosaccharomyces rouxii; [10]): 7.2%
inhibition at 250 ppm (Zygosaccharomyces rouxii; [10]): 16.5%
inhibition at 500 ppm (Zygosaccharomyces rouxii; [10]): 48.6%
inhibition at 1000 ppm (Zygosaccharomyces rouxii; [10]): 74.9%
inhibition at 2000 ppm (Zygosaccharomyces rouxii; [10]): 95.2%
Escherichia coli cell count (Escherichia coli): 5.49 Log(CFU/mL)
Lactobacillus acidophilus cell count [2]: <2 Log(CFU/mL)
Abs 660 nm after 3 days (Saccharomyces cerevisiae [3]): 0.0396 ± 0.005
Cell Count after 3 days (Saccharomyces cerevisiae [3]): 5.3 × 10^5 CFU/mL

O=C(O)C(O)c1ccccc1 (centres unmarked) [mandelic acid]
increase of the efficacy of potassium sorbate by addition of mandelic acid [4]: 2-10 ×

From US20200029601A1, “PHENYLACRYLIC ACID SOLUTION FOR BROAD SPECTRUM ANTIMICROBIAL APPLICATIONS FOR FOODSTUFFS” (KLF LABS LLC, priority 2018, published 2020)
